According to patent publication US12458622B2, “Methods of treatment of coronavirus-induced inflammation conditions” (priority 2020, dated 2025):
Where two headings read alike, the source gives them in different places.

How the values were obtained:
BV2 microglial cells = experiment: Aβ42 uptake, confocal microscopy and ELISA; assay type: cell-based; details: naive BV2 cells, 16 hours pretreatment then 2 hours with Aβ42, vs DMSO
Experimental: After incubation, the cells were labeled with a plasma membrane dye (PM, green) and imaged.

Dog = details: cited from earlier work
[1] = system: HMC3 human microglia cells; experiment: MSD U-PLEX cytokine secretion induced by TNF-α; assay type: cell-based; details: TNF-α induced, 24 hr; for inhibition at 3 µM: Homo sapiens, HMC3
Experimental: (§1) Human microglial cell line HMC3 (CRL-3304) was purchased from ATCC (American Type Culture Collection). HMC3 cell line was cultured in DMEM medium with 10% FBS, 1% L-glutamine, and 1% penicillin/streptomycin. Cells were maintained in 37° C. incubator at 5% CO2.
(§2) HMC3 cells were resuspended, counted using the LUNA-II Automated Cell Counter, seeded in the 6-well plate (400 K cells/2 mL medium/well), and incubated overnight to allow cells to attach. The media and detached cells were removed next day. The cell layer was washed three times in PBS and once in serum- and phenolred-free DMEM (SPFM). […] The conditioned medium was collected and centrifuged at 1,000×RCF (g) for 5 min to pellet detached cells and large debris, which was subsequently passed through a 0.22 μm filter with PVDF membrane to remove smaller debris. Samples of the supernatant medium were put in a CoolRack (#07210041, Fisher Scientific) on dry ice for Snap-freezing and kept at −80° C. until use.
(§3) Meso-scale U-PLEX plates that detect a cytokine panel including IL-1β, IL-2, IL-4, IL-6, IL-8, IL-10, IFN-γ, TNF-α, and a chemokine panel including IP-10/CXCL10, MCP-1/CCL2, MIP-1α/CCL3, MIP-1P/CCL4, Eotaxin/CCL11, were used as per manufacture's protocol. 25 μL of the conditioned medium was used in each well of the MSD plates to detect the analytes. The plates were then analyzed on an MSD QuickPlex SQ120 instrument.
(§4) All the data were presented as mean±standard error from at least three times, each done in triplicate. The statistical significance between two groups was determined by Student's t test, whereas the comparisons of multiple groups were carried out by one-way ANOVA, followed by Bonferroni's post-test using GraphPad Prism 7 (GraphPad Software, Inc.). A probability value of * p<0.05 was considered to be significant.

[2] = system: HMC3 human microglia cells; experiment: MSD U-PLEX chemokine secretion induced by TNF-α; assay type: cell-based; details: 0.3 μg/mL TNF-α, 24 hours; for inhibition at 3 µM: Homo sapiens, HMC3
Experimental: as §1, §2, §3, §4

[3] = system: HMC3 human microglia cells; experiment: Cell viability assay by AO/PI stain; assay type: cell-based; details: 0.3 μM, TNF-α 0.3 μg/mL
Experimental: as §1
HMC3 cells were resuspended, counted using the LUNA-II Automated Cell Counter, seeded in the 6-well plate (300 K cells/2 mL medium/well), and incubated overnight to allow cells to attach. Cells were treated with TNF-α or IFN-γ at five different concentrations (0, 10, 30, 100, 300 ng/mL) for 24 hr to induce cell activation. The supernatant medium was completely aspirated and 1 mL of fresh DMEM was added to wash the cell layer to remove detached cells and debris. The attached cells were resuspended and washed with PBS. Cells were washed with FACS buffer (2% FBS in PBS) prior to incubation with Zombie Violet Fixable Viability Dye (#423114, Biolegend, 1:500 dilution) and Human Fe Receptor Blocking Solution (#422302, Biolegend, 1:20) diluted in FACS buffer at RT for 10 min in the dark. Cells were then washed with FACS buffer and incubated at RT for 20 min with the following cell-surface antibodies: FITC anti-MHC II (#361706, Biolegend), PerCP/Cy5.5 anti-CD11b (#301328, Biolegend), BV605 anti-CD40 (#334336, Biolegend), PE anti-CD86 (#374206, Biolegend), PE/Cy7 anti-CD163 (#326514, Biolegend), APC anti-CD206 (#321110, Biolegend), and PerCP/Cy5.5 anti-CD14 (#367110, Biolegend). All of the cell-surface antibodies were diluted 1:20 in FACS buffer. Cells were permeabilized using the Transcription Factor Fixation/Permeabilization Buffer Set (#424401, Biolegend). Then cells were incubated with the following intracellular antibodies: APC/Cy7 anti-CD68 (#333822, Biolegend), purified anti-IBA1 (#PA5-27436, Invitrogen), Goat anti-Rabbit-Alexa Fluor 647 (#A21245, Invitrogen), purified anti-GFAP (#644702, Biolegend), and Goat anti-Mouse-Alexa Fluor 488 (#11029, Invitrogen). All of the intracellular antibodies were diluted 1:100 in the Permeabilization buffer (lx). Cells were washed with Permeabilization buffer and fixed in Fixation Buffer (#420801, Biolegend). Flow cytometry was performed using the Attune NxT Acoustic Focusing Cytometer (Thermo Fisher Scientific). Analysis of flow cytometry data was performed via FCS Express 7 (DeNovo Software).
Cell viability was assessed with a LUNA-FL Automated fluorescence cell counter. Viable nucleated cells show green fluorescence and dying nucleated cells show red fluorescence. 18 µL of sample was mixed with 2 μL Acridine Orange/Propidium Iodide (AO/PI) Stain.
as §4

Rhesus Monkeys = details: cited from earlier work
Stump-tailed Monkeys = details: 20 mg cromolyn and lactose capsules, 4, 16 and 72 capsules/day, 17 weeks; cited from earlier work
[4] = system: BV2 cells stably expressing CD33 (BV2-CD33WT); experiment: Aβ42 uptake, ELISA; assay type: cell-based; details: 16 hours pretreatment then 2 hours with Aβ42, vs DMSO
Rabbit = details: Oral; cited from earlier work
Rat = details: cited from earlier work
[5] = cited from earlier work

O=C(O)c1cc(=O)c2c(OCC(O)COc3cccc4oc(C(=O)O)cc(=O)c34)cccc2o1 [cromolyn]
Aβ42 uptake (BV2 microglial cells): increased Aβ42 uptake | LD50 Value (Dog; IV): >1600 mg/kg | LD50 Value (Dog; Oral): >4 gm/kg | IFN-γ concentration ([1]; 0.3 μM): decreased | IL-1β concentration ([1]; 0.3 μM): decreased | IL-6 concentration ([1]; 0.3 μM): decreased | IL-8 concentration ([1]; 0.3 μM): decreased | inhibition at 3 µM ([1]; read-out: inhibition of IFN-γ): > 40% | inhibition at 3 µM ([1]; read-out: inhibition of IL-1β): > 40% | inhibition at 3 µM ([1]; read-out: inhibition of IL-6): > 40% | inhibition at 3 µM ([1]; read-out: inhibition of IL-8): 25.8% | extracellular IP-10 (CXCL10) ([2]; 0.3 μM): statistically significant reduction | extracellular MCP-1 (CCL2) ([2]; 0.3 μM): statistically significant reduction | extracellular MIP-1α (CCL3) ([2]; 0.3 μM): statistically significant reduction | extracellular MIP-1β (CCL4) ([2]; 0.3 μM): statistically significant reduction | inhibition at 3 µM ([2]; read-out: inhibition of IP-10 (CXCL10)): > 40% | inhibition at 3 µM ([2]; read-out: inhibition of MCP-1 (CCL2)): > 40% | inhibition at 3 µM ([2]; read-out: inhibition of MIP-1α (CCL3)): 35.6% | inhibition at 3 µM ([2]; read-out: inhibition of MIP-1β (CCL4)): > 40% | TNF-α induced cell death [3]: significantly reduced cell death | Mortality (Rhesus Monkeys; single IV dose of 5, 50, 500, 1000 mg/kg, 7-day observation): There were no mortalities. | Clinical signs and weight (Rhesus Monkeys; single IV dose, at 500 and 1000 mg/kg): Slight ataxia and weight | Body weight (Stump-tailed Monkeys): Some weight loss. | Internalized Aβ42 [4]: increased levels of internalized Aβ42 | LD50 Value (Rabbit): >8 gm/kg | LD50 Value (Rat; IP): >4 gm/kg | LD50 Value (Rat; IV): >4 gm/kg | LD50 Value (Rat; Oral): >11 gm/kg | LD50 Value (Rat; SC): 6 gm/kg | Adverse effects in repeat dose studies ([5]; all routes of administration): No adverse effects | Renal toxicity ([5]; dosing of high concentration, precipitation in the renal tubules): renal damage was observed
